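Compound exposure: 48 hours, 5 concentrations, 96-well plates. Here, GI50 denotes the concentration required for 50% inhibition of growth.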 The source made the active and inactive calls. Cut-off read from the data, not from the text of the source: active = GI50 up to about 1.1 µM and inactive = higher.
Tests used:
Assay in all cases: DTP human tumour cell line panel, 48 h
[1] = system: 786-0
[2] = system: ACHN
[3] = system: EKVX
[4] = system: HOP-62
[5] = system: Hs-578T
[6] = system: LOX IMVI
[7] = system: NCI-H226
[8] = system: RPMI-8226
[9] = system: RXF 393
[10] = system: SF-539
[11] = system: SK-MEL-28
[12] = system: SK-MEL-5
[13] = system: SNB-19
[14] = system: SW-620
[15] = system: T47D
[16] = system: U-251
[17] = system: UACC-257
[18] = system: UO-31
[19] = system: SNB-75

Measured: GI50

OCCCN=C1CCCCC1
inactive: [1] > 100 µM | [2] > 100 µM | [3] > 100 µM | [4] > 100 µM | [5] 69.8 µM | [6] > 100 µM | [7] > 100 µM | [8] > 100 µM | [9] > 100 µM | [10] > 100 µM | [11] > 100 µM | [12] > 100 µM | [13] > 100 µM | [14] > 100 µM | [15] > 100 µM | [16] > 100 µM | [17] > 100 µM | [18] > 100 µM

NS(=O)(=O)c1ccc(NC(=S)NC=C2C(=O)c3ccccc3C2=O)cc1
inactive: [1] > 100 µM | [2] > 100 µM | [3] > 100 µM | [4] > 100 µM | [5] 14.4 µM | [6] > 100 µM | [8] 36.4 µM | [9] 43.6 µM | [10] 35.5 µM | [11] > 100 µM | [12] 47 µM | [13] > 100 µM | [19] 19.4 µM | [14] > 100 µM | [15] 30.8 µM | [16] 76.2 µM | [17] > 100 µM | [18] 22.6 µM

NC(CCC(=O)c1ccccn1)C(=O)O (configuration not stated)
inactive: [1] > 100 µM | [2] > 100 µM | [3] > 100 µM | [4] > 100 µM | [5] > 100 µM | [6] > 100 µM | [7] > 100 µM | [8] > 100 µM | [9] > 100 µM | [10] > 100 µM | [11] > 100 µM | [12] > 100 µM | [13] > 100 µM | [14] > 100 µM | [15] > 100 µM | [16] > 100 µM | [17] > 100 µM | [18] > 100 µM

CCOC(=O)C(Cc1ccc2c(c1)CCC2)Cc1ccc2c(c1)CCC2
inactive: [1] > 100 µM | [2] > 100 µM | [3] 91 µM | [4] > 100 µM | [5] > 100 µM | [6] 20.7 µM | [8] 44.4 µM | [9] > 100 µM | [10] > 100 µM | [11] > 100 µM | [12] 18.5 µM | [13] > 100 µM | [19] > 100 µM | [14] > 100 µM | [15] 53.1 µM | [16] 51.4 µM | [17] 54.5 µM | [18] 78 µM

Cc1ccc(/N=N/C(=N/NC(=O)c2ccccc2)c2ccc(N(CCC#N)CCC#N)cc2C)cc1
inactive: [1] 33.3 µM | [2] > 100 µM | [3] 63.4 µM | [4] 41.6 µM | [5] 13 µM | [7] 44 µM | [8] > 100 µM | [9] 22.8 µM | [10] 19.3 µM | [12] 13.4 µM | [13] 35 µM | [19] 32.7 µM | [15] 37.4 µM | [16] 52.6 µM | [17] 55 µM | [18] > 100 µM

C[C@@H]1OC(=O)C[C@H]2CC(=O)N(CCc3cn(S(=O)(=O)C(F)(F)F)c4ccccc34)C[C@@H]21
inactive: [1] > 100 µM | [2] > 100 µM | [3] > 100 µM | [4] > 100 µM | [5] > 100 µM | [8] > 100 µM | [9] > 100 µM | [11] > 100 µM | [12] > 100 µM | [13] > 100 µM | [19] > 100 µM | [14] > 100 µM | [15] > 100 µM | [16] > 100 µM | [17] > 100 µM | [18] > 100 µM

COc1ccc(C2C(C#N)=C(S)N(C3OC(COC(C)=O)C(OC(C)=O)C(OC(C)=O)C3OC(C)=O)C(C)=C2C(C)=O)cc1 (configuration not stated)
inactive: [1] > 100 µM | [2] 77.1 µM | [4] > 100 µM | [5] 59.3 µM | [6] > 100 µM | [8] 73.1 µM | [9] 40.5 µM | [10] > 100 µM | [11] > 100 µM | [12] 26.4 µM | [13] > 100 µM | [19] 26.4 µM | [14] 42.3 µM | [15] 28.6 µM | [16] > 100 µM | [17] > 100 µM | [18] 81.8 µM

C=CCCC1CCCCNC1=S (configuration not stated)
inactive: [1] > 10 µM | [2] > 10 µM | [3] > 10 µM | [4] > 10 µM | [5] > 10 µM | [6] > 10 µM | [7] > 10 µM | [8] > 10 µM | [9] > 10 µM | [10] > 10 µM | [11] > 10 µM | [12] > 10 µM | [13] > 10 µM | [14] > 10 µM | [15] > 10 µM | [16] > 10 µM | [17] > 10 µM | [18] > 10 µM

CC(C)(C)OC(=O)/C=C/[C@@H](CCC(=O)/C=C/[C@H](/C=C\CCCC(=O)O)NC1(c2ccccc2)c2ccccc2-c2ccccc21)O[Si](C)(C)C(C)(C)C
inactive: [1] 16.1 µM | [2] 17.8 µM | [3] 19.2 µM | [4] 17.5 µM | [5] 38.9 µM | [6] 13.8 µM | [7] 18.3 µM | [8] 10.5 µM | [9] 11.5 µM | [10] 18.2 µM | [11] 25.8 µM | [12] 16.9 µM | [13] 20.6 µM | [14] 26.9 µM | [15] 12.6 µM | [16] 16.3 µM | [17] 17.8 µM | [18] 15.2 µM

CCOC(=O)[C@@H]1C[C@@H]1c1ccc(O)c(O)c1
inactive: [1] 16.1 µM | [2] 42.8 µM | [3] 38.6 µM | [4] 17.6 µM | [5] 43.1 µM | [7] 22.5 µM | [8] 18.1 µM | [9] 21.1 µM | [10] 20.6 µM | [11] 30.8 µM | [12] 14.4 µM | [13] 49 µM | [14] 14.3 µM | [15] 16 µM | [16] 72.1 µM | [17] 39.2 µM | [18] 10.7 µM

COc1ccc(/C=C2\CN(C)CC3=C2OC(N)=C(C#N)C3c2ccc(OC)cc2)cc1 (configuration not stated)
inactive: [1] 30.5 µM | [2] 29.6 µM | [3] 43.4 µM | [4] > 77.4 µM | [5] 88.1 µM | [6] 42.7 µM | [7] > 100 µM | [8] 9.82 µM | [9] 20.7 µM | [10] > 100 µM | [11] > 100 µM | [12] > 62.1 µM | [13] > 86.7 µM | [14] > 94.2 µM | [15] 13.6 µM | [16] 38 µM | [17] 50.5 µM | [18] > 50.5 µM

From ChEMBL document CHEMBL1201862, “PubChem BioAssay data set” (2004)
